Laboratory results: patent US12337022B2, “Use of a vegetable extract from salvia haenkei as an active agent in the treatment of heart diseases” (Altergon S.A., priority 2021, dated 2025)

What was measured:
Sprague-Dawley rats = assay: Echocardiography in rat model of DOXO-induced cardiotoxicity; assay type: in vivo; conditions: DOXO-treated animals not receiving SH
Method: For in vivo experiments, considering that a water intake for adult rat is about 30-40 ml/day, 1.25 gr of SH extract was diluted in 300 ml of water, achieving a daily dose of […] (extract/body weight).
Adult female Sprague-Dawley rats (250-300 g body weight) were injected with six intraperitoneal doses of DOXO (Sigma) delivered at regular intervals from Day 1 to Day 11 (cumulative dose=15 mg/kg). During the treatment, rats were given ad libitum access to water containing SH. Rats received a daily dose of about 0.5 mg/Kg of SH.
Echocardiographic assessment, animals were anaesthetized at the indicated time points with 2.0-2.5% isoflurane. Transthoracic echocardiography was performed using the Vevo 2100 high-resolution imaging system (VisualSonic) equipped with a 13-24-MHz linear transducer. Analyses were performed on Days 0 (baseline), 12, 19. Two-dimensional short-axis M-mode echocardiography was performed. All M-mode tracing measurements were averaged from a minimum of three cardiac cycles. Investigators were blinded to the animals' identity.

Method for beating human iPS-CM: Traces were recorded every 24 hours for 7 consecutive days from the beginning of the DOXO treatment (day 0-3 h).

COc1cccc2c1C(=O)c1c(O)c3c(c(O)c1C2=O)C[C@@](O)(C(=O)CO)C[C@@H]3O[C@H]1C[C@H](N)[C@H](O)[C@H](C)O1 [DOXO, Doxorubicin]
left end systolic volume (LVESV) (Sprague-Dawley rats): increased over time | left ventricular ejection fraction (LVEF) (Sprague-Dawley rats): significant decrease | QT interval (beating human iPS-CM): induces prolongation on QT interval
